Source: PubChem BioAssay (NCI)
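96-well plates; 48 h exposure; 5 concentrations. Endpoints by linear interpolation between flanking doses. Not reached: highest tested concentration assigned. TGI denotes the concentration required for complete inhibition of growth.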

Key:
Assay in all cases: DTP human tumour cell line panel, 48 h
[1] = test system: MOLT-4 leukemia
[2] = test system: SN12C renal
[3] = test system: MDA-N
[4] = test system: SF-295 CNS
[5] = test system: EKVX NSCLC
[6] = test system: OVCAR-4 ovarian
[7] = test system: OVCAR-3 ovarian
[8] = test system: MALME-3M melanoma
[9] = test system: PC-3 prostate
[10] = test system: DU-145 prostate
[11] = test system: UACC-257 melanoma
[12] = test system: UACC-62 melanoma
[13] = test system: SK-MEL-2 melanoma
[14] = test system: HOP-62 NSCLC
[15] = test system: MCF7 breast
[16] = test system: SF-268 CNS
[17] = test system: ACHN renal
[18] = test system: RXF 393 renal
[19] = test system: MDA-MB-231 breast
[20] = test system: UO-31 renal
[21] = test system: SNB-75 CNS
[22] = test system: HS 578T breast
[23] = test system: M14 melanoma
[24] = test system: HCT-15 colon
[25] = test system: NCI-H460 lung
[26] = test system: SK-OV-3 ovarian
[27] = test system: BT-549 breast
[28] = test system: CAKI-1 renal
[29] = test system: SK-MEL-5 melanoma
[30] = test system: HT29 colon
[31] = test system: U251 CNS
[32] = test system: NCI-H522 lung
[33] = test system: OVCAR-8 ovarian
[34] = test system: HL-60(TB) leukemia
[35] = test system: SF-539 CNS
[36] = test system: HCT-116 colon
[37] = test system: A549 NSCLC
[38] = test system: HOP-92 NSCLC
[39] = test system: NCI-H226 lung
[40] = test system: NCI-H23 lung
[41] = test system: 786-0 renal
[42] = test system: SR leukemia
[43] = test system: NCI/ADR-RES ovarian
[44] = test system: IGROV1 ovarian
[45] = test system: KM12 colon
[46] = test system: OVCAR-5 ovarian
[47] = test system: RPMI-8226 leukemia
[48] = test system: T-47D breast
[49] = test system: SNB-19 CNS
[50] = test system: HCC-2998 colon
[51] = test system: K-562 leukemia
[52] = test system: SW-620 colon
[53] = test system: SK-MEL-28 melanoma
[54] = test system: LOX IMVI melanoma
[55] = test system: MDA-MB-435
[56] = test system: TK-10 renal
[57] = test system: COLO 205 colon
[58] = test system: CCRF-CEM leukemia
[59] = test system: A498 renal

O=C(Nc1cccc2cnccc12)c1cc2c(cc1Cl)Sc1nccn1S2(=O)=O
TGI [1]: 59.4 µM | TGI [2]: 30.5 µM | TGI [3]: 23.7 µM | TGI [4]: 43.5 µM | TGI [5]: 52.8 µM | TGI [6]: 87.1 µM | TGI [7]: 56.7 µM | TGI [8]: 38.7 µM | TGI [9]: > 100 µM | TGI [10]: 55.9 µM | TGI [11]: 45.1 µM | TGI [12]: 26 µM | TGI [13]: 32.2 µM | TGI [14]: 39.7 µM | TGI [15]: 37.1 µM | TGI [16]: 42.2 µM | TGI [17]: 77.9 µM | TGI [18]: 24.4 µM | TGI [19]: 36.5 µM | TGI [20]: 55.6 µM | TGI [21]: 47.4 µM | TGI [22]: 73.7 µM | TGI [23]: > 100 µM | TGI [24]: 27.8 µM | TGI [25]: 24.1 µM | TGI [26]: 86 µM | TGI [27]: 40.2 µM | TGI [28]: 91.5 µM | TGI [29]: 26.2 µM | TGI [30]: 48.3 µM | TGI [31]: 32.1 µM | TGI [32]: 33.2 µM | TGI [33]: 62.7 µM | TGI [34]: 21.8 µM | TGI [35]: 59.3 µM | TGI [36]: 20 µM | TGI [37]: > 100 µM | TGI [38]: 59.4 µM | TGI [39]: 38.5 µM | TGI [40]: 28.6 µM | TGI [41]: 33.1 µM | TGI [42]: 48.9 µM | TGI [43]: 57.8 µM | TGI [44]: 45.8 µM | TGI [45]: 21.9 µM | TGI [46]: 77.8 µM | TGI [47]: 38.6 µM | TGI [48]: 40.8 µM | TGI [49]: 65.3 µM | TGI [50]: 29.9 µM | TGI [51]: > 100 µM | TGI [52]: 50.8 µM | TGI [53]: 53.1 µM | TGI [54]: 31.8 µM | TGI [55]: 34.1 µM | TGI [56]: 59.2 µM | TGI [57]: 30.8 µM

CCSC1=CC(=O)c2nc3ccccc3c3ccnc1c23
TGI [1]: 15.3 µM | TGI [2]: 8.43 µM | TGI [3]: 4 µM | TGI [4]: 31 µM | TGI [5]: 7.59 µM | TGI [6]: 7.53 µM | TGI [7]: > 23.1 µM | TGI [8]: 3.32 µM | TGI [9]: > 23.3 µM | TGI [10]: 15.5 µM | TGI [11]: 4.19 µM | TGI [12]: 4.32 µM | TGI [13]: 5.6 µM | TGI [14]: > 51.3 µM | TGI [15]: 4.79 µM | TGI [16]: > 22 µM | TGI [17]: > 44.7 µM | TGI [18]: 18.2 µM | TGI [19]: 31.8 µM | TGI [20]: 19 µM | TGI [21]: 26.6 µM | TGI [22]: 14.7 µM | TGI [23]: 6.15 µM | TGI [24]: 7.37 µM | TGI [25]: 23.8 µM | TGI [26]: > 100 µM | TGI [27]: 26.3 µM | TGI [28]: 9.12 µM | TGI [30]: 16.9 µM | TGI [31]: 14.5 µM | TGI [32]: 3.78 µM | TGI [33]: > 100 µM | TGI [34]: 7.74 µM | TGI [35]: 13.2 µM | TGI [36]: > 25.1 µM | TGI [37]: 22.9 µM | TGI [38]: 38.6 µM | TGI [39]: 27.1 µM | TGI [40]: 11.4 µM | TGI [41]: 11.4 µM | TGI [42]: 15.5 µM | TGI [43]: > 30.1 µM | TGI [44]: 9.4 µM | TGI [45]: 25.2 µM | TGI [46]: 15 µM | TGI [47]: > 31.6 µM | TGI [48]: 78.2 µM | TGI [49]: > 87.1 µM | TGI [50]: 25 µM | TGI [52]: > 21.4 µM | TGI [53]: 25.3 µM | TGI [54]: > 36.1 µM | TGI [55]: 3.43 µM | TGI [56]: 26.5 µM | TGI [58]: > 25.9 µM | TGI [57]: > 32.8 µM

COC(=O)NN(C(=O)OC)c1c(-c2ccccc2)nc(SC)n1N
TGI [1]: > 100 µM | TGI [2]: > 100 µM | TGI [3]: > 100 µM | TGI [4]: > 100 µM | TGI [5]: > 100 µM | TGI [6]: > 100 µM | TGI [7]: > 100 µM | TGI [8]: > 100 µM | TGI [9]: > 100 µM | TGI [10]: > 100 µM | TGI [11]: > 100 µM | TGI [12]: > 100 µM | TGI [13]: > 100 µM | TGI [14]: > 100 µM | TGI [15]: > 100 µM | TGI [16]: > 100 µM | TGI [17]: > 100 µM | TGI [18]: > 100 µM | TGI [19]: > 100 µM | TGI [20]: > 100 µM | TGI [21]: > 100 µM | TGI [22]: > 100 µM | TGI [23]: > 100 µM | TGI [24]: > 100 µM | TGI [25]: > 100 µM | TGI [27]: > 100 µM | TGI [28]: > 100 µM | TGI [29]: > 100 µM | TGI [31]: > 100 µM | TGI [32]: > 100 µM | TGI [33]: > 100 µM | TGI [34]: > 100 µM | TGI [35]: > 100 µM | TGI [36]: > 100 µM | TGI [37]: > 100 µM | TGI [39]: > 100 µM | TGI [40]: > 100 µM | TGI [41]: > 100 µM | TGI [42]: > 100 µM | TGI [43]: > 100 µM | TGI [44]: > 100 µM | TGI [45]: > 100 µM | TGI [46]: > 100 µM | TGI [47]: > 100 µM | TGI [48]: > 100 µM | TGI [49]: > 100 µM | TGI [50]: > 100 µM | TGI [51]: > 100 µM | TGI [52]: > 100 µM | TGI [53]: > 100 µM | TGI [54]: > 100 µM | TGI [59]: > 100 µM | TGI [55]: > 100 µM | TGI [56]: > 100 µM | TGI [58]: > 100 µM | TGI [57]: > 100 µM
